According to patent US10227329B2, “Compounds useful for treating disorders related to RET” (BLUEPRINT MEDICINES CORPORATION, priority 2016, dated 2019):

How the values were obtained:
wild type RET = wild type RET (Homo sapiens (Human), UniProt P07949); assay: RET Wild Type Assay at KM (Caliper electrophoretic mobility shift); format: biochemical; conditions: 25 μM ATP (KM)
RET V804L = RET V804L (Homo sapiens (Human), UniProt P07949, V804L); assay: RET V804L Gatekeeper Mutant Assay at KM (Caliper electrophoretic mobility shift); format: biochemical; conditions: 10 μM ATP (KM), read-out: V480L Mutant
Sequence of RET V804L (P07949 29-1114 V804L): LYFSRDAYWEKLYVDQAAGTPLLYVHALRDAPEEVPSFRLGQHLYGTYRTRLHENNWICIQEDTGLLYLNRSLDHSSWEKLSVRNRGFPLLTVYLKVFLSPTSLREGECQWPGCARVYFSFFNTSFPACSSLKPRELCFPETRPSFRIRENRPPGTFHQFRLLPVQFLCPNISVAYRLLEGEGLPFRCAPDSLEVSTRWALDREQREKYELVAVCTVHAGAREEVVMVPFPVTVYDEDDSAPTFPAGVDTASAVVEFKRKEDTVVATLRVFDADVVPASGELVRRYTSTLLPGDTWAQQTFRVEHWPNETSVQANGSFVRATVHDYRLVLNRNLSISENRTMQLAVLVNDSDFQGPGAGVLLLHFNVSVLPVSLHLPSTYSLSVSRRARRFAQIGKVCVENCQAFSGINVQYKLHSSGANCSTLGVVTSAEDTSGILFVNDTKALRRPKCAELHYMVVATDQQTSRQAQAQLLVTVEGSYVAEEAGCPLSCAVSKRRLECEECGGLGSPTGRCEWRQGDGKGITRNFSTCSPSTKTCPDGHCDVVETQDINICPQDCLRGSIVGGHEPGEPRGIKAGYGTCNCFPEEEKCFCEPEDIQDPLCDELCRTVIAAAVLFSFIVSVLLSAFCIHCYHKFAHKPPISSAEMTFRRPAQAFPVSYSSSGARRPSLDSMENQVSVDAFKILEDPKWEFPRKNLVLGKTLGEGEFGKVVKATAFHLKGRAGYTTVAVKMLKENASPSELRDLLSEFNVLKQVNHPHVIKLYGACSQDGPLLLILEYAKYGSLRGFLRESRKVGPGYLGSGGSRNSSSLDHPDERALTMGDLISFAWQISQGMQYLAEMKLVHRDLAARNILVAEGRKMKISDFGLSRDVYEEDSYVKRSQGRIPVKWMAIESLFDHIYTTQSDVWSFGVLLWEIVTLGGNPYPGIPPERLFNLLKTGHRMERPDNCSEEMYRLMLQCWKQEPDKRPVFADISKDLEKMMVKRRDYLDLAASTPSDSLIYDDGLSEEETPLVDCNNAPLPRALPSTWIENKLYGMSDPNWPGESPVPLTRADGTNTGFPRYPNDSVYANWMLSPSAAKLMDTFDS

Sequence of wild type RET (P07949 29-1114): as the sequence (P07949 29-1114 V804L) above, with L776V counted along it

Row | Compound | IC50 (wild type RET) [µM] | IC50 (RET V804L) [µM]
1 | CCC1(C(=O)NCc2ccc(-n3cccn3)nc2)CCN(c2nc(C)cc(Nc3cc(C)[nH]n3)n2)CC1 [Compound 158] | < 0.01 | < 0.01
2 | CCOC1(C(=O)N[C@@H](C)c2ccc(-n3cc(F)cn3)nc2)CN(c2cc(C)cc(Nc3cc(C)[nH]n3)n2)C1 [Compound 194, (S)-3-ethoxy-N-(1-(6-(4-fluoro-1H-pyrazol-1-yl)pyridin-3-yl)ethyl)-1-(4-methyl-6-((5-methyl-1H-pyrazol-3-yl)amino)pyridin-2-yl)azetidine-3-carboxamide] | < 0.01 | < 0.01
3 | Cc1cc(Nc2cc(C)c(C#N)c(N3CC(F)(C(=O)N[C@@H](C)c4ccc(-n5cc(F)cn5)nc4)C3)n2)n[nH]1 [Compound 189] | < 0.01 | < 0.01
4 | Cc1cc(Nc2cc(C)[nH]n2)nc(N2CCC(C)(C(=O)NCc3ccccc3)CC2)n1 [Compound 101] | 0.01 to 0.1 | 0.01 to 0.1
5 | COC1(C(=O)NCc2ccc(-n3cc(F)cn3)nc2)CN(c2nc(Nc3cc(C)[nH]n3)cc(C)c2F)C1 [Compound 174] | < 0.01 | < 0.01
6 | COCCC1(C(=O)NCc2ccc(-n3cccn3)nc2)CCN(c2nc(C)cc(Nc3cc(C)[nH]n3)n2)CC1 [Compound 213] | < 0.01 | < 0.01
7 | Cc1cc(Nc2cc(C)[nH]n2)nc(N2CCC(CO)(C(=O)N[C@@H](C)c3ccc(-n4cc(F)cn4)nc3)CC2)n1 [Compound 219] | < 0.01 | < 0.01
8 | Cc1cc(Nc2cc(C)[nH]n2)nc(N2CCC(O)(C(=O)N[C@@H](C)c3ccc(-n4cc(F)cn4)nc3)CC2)c1 [Compound 192] | < 0.01 | < 0.01
9 | CO[C@@]1(C(=O)N[C@@H](C)c2ccc(-n3cc(F)cn3)nc2)CN(c2nc(C)cc(Nc3cc(C)[nH]n3)n2)[C@@H]1C [Compound 198] | < 0.01 | < 0.01
10 | COC1(C(=O)N[C@@H](C)c2ccc(-n3cccn3)nc2)CN(c2nc(Nc3cc(C)[nH]n3)cc(C)c2C#N)C1 [Compound 175] | < 0.01 | < 0.01
11 | Cc1cc(Nc2cc(C)[nH]n2)nc(N2CCC(C(=O)NCc3ccccc3)CC2)n1 [Compound 100] | > 0.1 | 0.01 to 0.1
12 | Cc1cc(Nc2cc(C)[nH]n2)nc(N2CC[C@@H](C(=O)NCc3ccc(-n4cccn4)nc3)[C@H](O)C2)c1 [Compound 133] | < 0.01 | < 0.01
13 | CCOC1(C(=O)N[C@@H](C)c2ccc(-n3cc(F)cn3)nc2)CN(c2nc(C)cc(Nc3cc(C)[nH]n3)n2)C1 [Compound 197] | < 0.01 | < 0.01
14 | COC1(C(=O)N[C@@H](C)c2ccc(-n3cccn3)nc2)CCN(c2nc(Nc3cc(C)[nH]n3)cc(C)c2C#N)CC1 [Compound 222] | < 0.01 | < 0.01
15 | Cc1cc(Nc2cc(C)[nH]n2)nc(N2CC(F)(C(=O)NCc3ccc(-n4cc(F)cn4)nc3)C2)n1 [Compound 124] | < 0.01 | < 0.01
16 | Cc1cc(Nc2cc(C)c(C#N)c(N3CC(F)(C(=O)NCc4ccc(-n5cc(F)cn5)nc4)C3)n2)n[nH]1 [Compound 165] | < 0.01 | < 0.01
17 | COC1(C(=O)N[C@@H](C)c2ccc(-n3cc(F)cn3)nc2)CCN(c2cc(C)cc(Nc3cc(C)[nH]n3)n2)CC1 [Compound 216] | < 0.01 | < 0.01
18 | COC1(C(=O)NCc2ccc(-n3cccn3)nc2)CCN(c2nc(Nc3cc(C)[nH]n3)cc(C)c2C#N)CC1 [Compound 207] | < 0.01 | < 0.01
19 | Cc1cc(Nc2cc(C(F)F)cc(N3CC(F)(C(=O)NCc4cnc(-n5cc(F)cn5)cn4)C3)n2)n[nH]1 [Compound 183] | < 0.01 | < 0.01
20 | Cc1cc(Nc2cc(C)[nH]n2)nc(N2CC(C)(C(=O)NCc3ccc(-n4cc(F)cn4)nc3)C2)c1 [Compound 120] | < 0.01 | < 0.01
21 | CCOc1ccc(CNC(=O)C2(O)CCN(c3nc(C)cc(Nc4cc(C)[nH]n4)n3)CC2)cc1 [Compound 115] | 0.01 to 0.1 | 0.01 to 0.1
22 | Cc1cc(Nc2cc(C)[nH]n2)nc(N2C[C@H](C(=O)N[C@@H](C)c3ccc(-n4cc(F)cn4)nc3)[C@H]2C)n1 [Compound 144] | < 0.01 | < 0.01
23 | COC1(C(=O)NCc2ccc(-n3cc(F)cn3)nc2)CN(c2cc(C(F)F)cc(Nc3cc(C)[nH]n3)n2)C1 [Compound 208] | < 0.01 | < 0.01
24 | COC1(C(=O)N[C@@H](C)c2ccc(-n3cccn3)nc2)CN(c2nc(Nc3cc(C)[nH]n3)cc(C)c2F)C1 [Compound 168] | < 0.01 | < 0.01
25 | COC1(C(=O)NCc2ccc(N3CCC(F)(F)C3)nc2)CN(c2nc(C)cc(Nc3cc(C)[nH]n3)n2)C1 [Compound 176] | 0.01 to 0.1 | 0.01 to 0.1
26 | Cc1cc(Nc2cc(C)[nH]n2)nc(N2CC(C#N)(C(=O)N[C@@H](C)c3ccc(-n4cc(F)cn4)nc3)C2)n1 [Compound 159] | < 0.01 | < 0.01
